Earlier results in patent US10092615B2, “Nutritional supplements for improving male fertility” (Fairhaven Health, LLC, priority 2016, dated 2018).

Key:
[1] = tested on: sperm samples from 22 asthenospermic men; conditions: 50 μM, in vitro incubation
infertile patients = conditions: given for a mean 103 days
[2] = tested on: patients affected by male infertility; conditions: compared to placebo; for forward sperm motility (WMD): 95% CI (0.49, 23.16); for forward sperm motility (WMD) / total sperm motility (WMD): p=0.04; for total sperm motility (WMD): 95% CI (1.72, 13.14); for pregnancy rate (OR): 95% CI (2.08, 8.08), p<0.0001; for semen volume (WMD): 95% CI (−0.02, 0.58), p=0.07; for semen volume (WMD) / sperm concentration (WMD): without significant difference; for sperm concentration (WMD): 95% CI (−4.47, 15.84), p=0.27; for atypical sperm cell (WMD): 95% CI (−7.89, −3.56), p<0.00001

Row | SMILES | sperm motility [1] | standard sperm parameters (infertile patients) | fertilization rate (infertile patients; p<0.05) | forward sperm motility (WMD) [2] | total sperm motility (WMD) [2] | pregnancy rate (OR) [2] | semen volume (WMD) [2] | sperm concentration (WMD) [2] | atypical sperm cell (WMD) [2]
1 | COC1=C(OC)C(=O)C(C/C=C(\C)CC/C=C(\C)CC/C=C(\C)CC/C=C(\C)CC/C=C(\C)CC/C=C(\C)CC/C=C(\C)CC/C=C(\C)CC/C=C(\C)CCC=C(C)C)=C(C)C1=O [Coenzyme Q10] | significant increases in motility | no significant changes | significant improvement |  |  |  |  |  | 
2 | C[N+](C)(C)C[C@H](O)CC(=O)[O-] [L-carnitine] |  |  |  | 11.83 | 7.43 | 4.10 | 0.28 | 5.69 | −5.72
3 | CC(=O)O[C@H](CC(=O)[O-])C[N+](C)(C)C [acetyl-L-carnitine] |  |  |  | 11.83 | 7.43 | 4.10 | 0.28 | 5.69 | −5.72
